Experimental findings from the supplement of paper PMC9663587 are described below.

Each structure is given as a SMILES string.

What all share (assay): area over the GR curve, 72 h; higher = more effect;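 further: Dye Drop or Deep Dye Drop imaging of viable cells in 384-well plates (Hoechst nuclei, LIVE/DEAD dye), nine half-log doses, GR normalized to DMSO controls and time-zero plates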
Experiment [1] has as its system 184A1.
The subject of experiment [2] is CAMA1.
Experiment [3] relates to HCC1419.
The subject of experiment [4] is HCC1806.
Experiment [5] deals with HTERT_HME1.
The subject of experiment [6] is MCF10A.
The test system of experiment [7] is MGH312.
Experiment [8] has as its system SUM1315.
The test system of experiment [9] is SUM149.
Experiment [10] deals with SUM159.
Experiment [11] deals with SUM185PE.
Experiment [12] has as its system SUM44PE.

In the case of `CS(=O)(=O)N1CCN(Cc2cc3nc(-c4cccc5[nH]ncc45)nc(N4CCOCC4)c3s2)CC1` [Pictilisib/GDC0941] (max 10 µM), the “area over the GR curve” value stood at 0.276 GR in experiment [1]; 0.262 GR in [2]; 0.512 GR in experiment [3]; 0.118 GR in [4]; 0.134 GR in experiment [5]; 0.262 GR in experiment [6]. Moreover, the “area over the GR curve” value in experiment [7] is 0.771 GR; in experiment [8], 0.371 GR; in experiment [9] it was 0.117 GR; in experiment [10] it was 0.129 GR; in experiment [11] it was 0.458 GR; in [12], 0.392 GR.
Turning to `CN1CCN(C(=O)c2ccc3cc(CCNc4ncnc5ccc(C#N)cc45)ccc3c2)CC1` [senexin b] (max 10 µM), the “area over the GR curve” value in experiment [1] was 0.107 GR; in experiment [2], 0.351 GR; in experiment [3], 0.13 GR; in experiment [4], 0.0969 GR; in [5], 0.177 GR; in experiment [6], -0.0308 GR. In addition, the “area over the GR curve” value in [7] turned out to be 0.418 GR; in experiment [8] it was 0.175 GR; in [9], 0.129 GR; in experiment [10] it was 0.0855 GR; in experiment [11] it was 0.293 GR; in experiment [12] it was 0.369 GR.
For the compound `CC1(N)CCN(c2cnc(-c3cccc(Cl)c3Cl)c(N)n2)CC1` [SHP099] (max 10 µM), the “area over the GR curve” value in experiment [1] was 0.118 GR; in experiment [2] it was 0.0525 GR; in [3], 0.0437 GR; in experiment [4], -0.0155 GR; in [5] it was 0.0778 GR; in experiment [6] it was 0.081 GR. Moreover, the “area over the GR curve” value is -0.0302 GR in experiment [7]; 0.121 GR in experiment [8]; 0.001 GR in experiment [9]; 0.0503 GR in [10]; 0.176 GR in [11]; 0.075 GR in [12].
For `CNC(=O)c1cccc(-c2ccc3c(N4CCOC[C@@H]4C)nc(N4CCOC[C@@H]4C)nc3n2)c1` [AZD2014] (max 10 µM), the “area over the GR curve” value in experiment [1] worked out at 0.729 GR; in experiment [2], 0.873 GR; in [3], 0.942 GR; in experiment [4], 0.349 GR; in [5] it was 0.601 GR; in experiment [6] it was 0.4 GR. Further, the “area over the GR curve” value in experiment [7] came out at 1.39 GR; in experiment [8] it was 0.663 GR; in experiment [9], 0.385 GR; in [10], 0.481 GR; in experiment [11], 0.606 GR; in experiment [12] it was 0.917 GR.
As to `O=C(c1cc(Cc2n[nH]c(=O)c3ccccc23)ccc1F)N1CCN(C(=O)C2CC2)CC1` [Olaparib/AZD2281] (max 10 µM), the “area over the GR curve” value was found to be 0.0908 GR in experiment [1]; 0.0527 GR in experiment [2]; 0.018 GR in experiment [3]; 0.0953 GR in [4]; 0.0258 GR in experiment [5]; 0.0408 GR in experiment [6]. The “area over the GR curve” value is 0.0149 GR in [7]; 0.245 GR in [8]; 0.184 GR in experiment [9]; 0.0296 GR in [10]; -0.0156 GR in experiment [11]; -0.0366 GR in [12].
With `O=C1NC(=NCc2cccs2)SC1=Cc1ccc2ncccc2c1` [R0-3306] (max 10 µM), the “area over the GR curve” value is 0.207 GR in experiment [1]; 0.0858 GR in experiment [2]; -0.0238 GR in [3]; 0.085 GR in experiment [4]; 0.0677 GR in experiment [5]; 0.115 GR in [6]. Further, the “area over the GR curve” value in experiment [7] stood at 0.0994 GR; in experiment [8] it was 0.195 GR; in experiment [9], 0.106 GR; in [10], 0.0665 GR; in [11] it was 0.0686 GR; in [12], 0.276 GR.
With `CC(C)n1nc(-c2ccc3oc(N)nc3c2)c2c(N)ncnc21` [INK128/MLN0128] (max 3.162 µM), the “area over the GR curve” value came to 0.581 GR in [1]; 0.64 GR in [2]; 0.763 GR in experiment [3]; 0.39 GR in experiment [4]; 0.401 GR in [5]; 0.467 GR in [6]. Moreover, the “area over the GR curve” value in experiment [7] turned out to be 1.22 GR; in [8], 0.647 GR; in experiment [9], 0.318 GR; in experiment [10], 0.356 GR; in [11] it was 0.609 GR; in experiment [12] it was 0.781 GR.
Regarding `Nc1cc(C(F)(F)F)c(-c2cc(N3CCOCC3)nc(N3CCOCC3)n2)cn1` [Buparlisib/NVP-BKM120] (max 10 µM), the “area over the GR curve” value in experiment [1] came out at 0.268 GR; in experiment [2] it was 0.353 GR; in experiment [3] it was 0.45 GR; in [4], 0.305 GR; in [5], 0.243 GR; in experiment [6], 0.249 GR. Besides, the “area over the GR curve” value in experiment [7] was found to be 0.506 GR; in experiment [8] it was 0.438 GR; in experiment [9] it was 0.248 GR; in experiment [10], 0.184 GR; in [11], 0.299 GR; in [12] it was 0.436 GR.
Regarding `COc1cccc(OCCCN)c1-c1cc(Nc2cnc(C#N)cn2)n[nH]1`, the “area over the GR curve” value in [1] was 0.0009 GR; in [2], 0.483 GR; in experiment [3], 0.413 GR; in [4], 1.39 GR; in experiment [5] it was 0.596 GR; in experiment [6] it was 0.301 GR. Further, the “area over the GR curve” value was found to be 0.0934 GR in experiment [7]; 0.809 GR in experiment [8]; 0.793 GR in experiment [9]; 0.533 GR in [10]; 0.167 GR in experiment [11]; 0.75 GR in experiment [12].
For `Cc1nn(C)c(COc2ccc(N3CCN(S(=O)(=O)N(C)C)CC3)cc2)c1-c1cccc2c(CCCOc3cccc4ccccc34)c(C(=O)O)n(CCN3CCOCC3)c12` (max 10 µM), the “area over the GR curve” value in [1] is 0.0952 GR; in experiment [2], 0.0026 GR; in [3], 0.0402 GR; in experiment [4], -0.0123 GR; in experiment [5] it was 0.339 GR; in experiment [6] it was 0.0018 GR. Also, the “area over the GR curve” value was -0.123 GR in experiment [7]; -0.0531 GR in experiment [8]; 0.0361 GR in experiment [9]; -0.0068 GR in experiment [10]; 0.117 GR in experiment [11]; 0.14 GR in experiment [12].
